In patent publication US12090132B2, “Tris DBA pharmaceutical composition and its use for treating autoimmune diseases” (National Defense Medical Center, priority 2019, dated 2024):
Entries after “also recorded” stand apart in the source; their conditions may differ.

Assays:
[1] = tested on: ASLN mouse (NZB/WF1); assay: Renal pathology (PAM, IHC) and autoantibody in ASLN mouse model; format: in vivo; settings: ASLN mouse kidney
[2] = tested on: ASLN mouse (NZB/WF1); assay: T cell subsets in ASLN mouse model (NZB/WF1); format: in vivo; settings: Week 5, FIG. 3C
Description: (§1) Improve mouse animal model of accelerated aggravated lupus nephritis8-week-old female mouse (NZB/WF1) model is used for experiment in this embodiment, the mice are randomly divided into two groups (treatment group Tris DBA, negative control group Katimin-1), 7 mice per group, the LPS (0.6 mg/kg) is injected into the abdominal cavity of mouse twice a week, the Tris DBA (30 mg/kg) or Katimin-1® is applied by intraperitoneal injection in one week after injection, the mice are sacrificed in Week 3 and Week 5 respectively.

[3] = tested on: ASLN mouse (NZB/WF1); assay: Renal pathology (PAM, IHC) and autoantibody in ASLN mouse model; format: in vivo
Description: as §1
When the mice are sacrificed in Week 3 and Week 5, the renal tissue is taken for analysis, the renal cortex tissue is stained by PAM to analyze the content of immunoglobulin G (IgG) and serum complement C3, and the content of F4/80+ macrophages and CD30+ T cells is analyzed by IHC, so as to detect specific antigen molecules in tissue slice and to perform positioning, qualitative and quantitative analyses.

[4] = tested on: BMDM cells; assay: Mitochondrion ROS in mouse BMDM; format: cell-based; settings: LPS 1 μg/mL 5.5 hours, ATP 30 minutes, FIGS. 6D-6E
Description: The generation of mitochondrion ROS in the mouse BMDM is tested by using mitosox principle. There are two experimental groups (treatment group Tris DBA, negative control group NAC), reacting with 1 μg/mL LPS and cells for 5.5 hours, treated with ATP for 30 minutes, treated with commercial reagent H2DCFDA for one hour, so as to evaluate the cellular infiltration fluorescence intensity.

[5] = tested on: CD4 T cells of OVA-TCR transgenic mouse; assay: Antigen-specific T cell proliferation ([3H]-thymidine) and IFN-γ/IL-4, OVA-TCR CD4 T cells cultured with BMDCs; format: cell-based; settings: FIG. 3L
Description: The CD4 T cells of OVA-TCR transgenic mouse and T cell proliferation of antigenic specificity are used to analyze the manifestation of dendritic cell antigen. The OVA323-339 peptide reacts with LPS and LPS+Tris DBA groups for 16 hours respectively. The CD4 T cells abstracted from OVA-TCR transgenic mouse are cultured with BMDCs as per ratios of 1:0, 1:1, 1:2 and 1:4, the T cell proliferation is determined by radioactive [3H]-thymidine, and the processed cell supernatant is used for testing the IFN-γ and IL-4 expression levels in Th1 and Th2 cells according to the operational manual of commercial reagent kit.

[6] = tested on: MAPK (pERK, pJNK, pp38); assay: Western Blot of MAPK phosphorylation in J774A.1 cells; format: cell-based, mouse
[7] = tested on: NF-κB; assay: NF-κB activation in J774A.1 cells; format: cell-based, mouse; settings: FIG. 1I
[8] = tested on: ASLN mouse (NZB/WF1); assay: Urine protein and renal function in ASLN mouse model; format: in vivo; settings: 30 mg/kg intraperitoneal
Description: as §1
The mouse urine is collected weekly, and the serum is collected when the mice are sacrificed in Week 3 and Week 5, the changes in three biochemical indexes, which are creatinine (Cr), BUN and albumin/creatinine ratio (ACR) in urine, are tested according to the operational manual of commercial reagent kit, so as to analyze the changes in renal function.

[9] = tested on: NLRP3 inflammasome; assay: NLRP3 inflammasome activation in LPS/ATP-treated J774A.1 cells (ELISA, Western Blot); format: cell-based, mouse
Description: Each group was treated with 0, 0.1, 0.5 and 1 μM Tris DBA culture medium for 30 minutes, reacting with 1 μg/ml lipopolysaccharide (LPS) of NLRP3 inflammasome typical activator for 5.5 hours. Finally, it reacted with 5 mM ATP reagent for 30 minutes, the IL-1β and caspase-1 cytokines were tested by ELISA.
The protein expression was analyzed by Western Blot, the cells and Tris DBA were cultured for 1 hour, and cultured with two groups with LPS or without LPS respectively for 5.5 hours to test the expression level of cytokines (NLRP3, caspase-1, pro-caspase-1, pro-IL-1β, pro-IL-1β) in cells. This step refers to the data from prior literature (Chang Y P, et. al. 2015. Resveratrol inhibits NLRP3 inflammasome activation by preserving mitochondrial integrity and augmenting autophagy.

[10] = tested on: ASLN mouse kidney; assay: Protein expression in renal tissue of ASLN mouse; format: in vivo
Description: as §1
The renal tissue is thoroughly mixed with RIPA lysis, the expression levels of proteins Atg5, LC3B, p62, NLRP3, caspase-1, IL-1β, p47phox, NQO1, pERK, pJNK and pp38 are tested by gel electrophoresis (SDS-page).

[11] = tested on: ASLN mouse (NZB/WF1); assay: ROS (superoxide anion) in urine, serum and renal tissue of ASLN mouse; format: in vivo; settings: Week 3 and Week 5, versus Katimin-1 group
Description: as §1
The ASLN mouse urine, serum and renal tissue obtained in Embodiment 2.4 are used to test antioxidant activity. The ROS content is tested according to operational manual of commercial reagent kit, the fluorescence probe dihydroethidium (Dihydroethidium, DHE) reacts with mouse urine and serum. The experimental results are represented as RLU/15 min/ml; the renal tissue is represented as RLU/15 min/mg dry weight.

[12] = tested on: autophagy factors Atg5, LC3BI/II, p62; assay: Autophagy factor expression in J774A.1 cells (Western Blot); format: cell-based, mouse; settings: concentration-dependent

Q: Which “content of CD3+T cells” value [1] does the source give for `O=C(/C=C/c1ccccc1)/C=C/c1ccccc1.O=C(/C=C/c1ccccc1)/C=C/c1ccccc1.O=C(/C=C/c1ccccc1)/C=C/c1ccccc1.[Pd].[Pd]` [Tris DBA] here?
A: can obviously inhibit

Q: What about the “regulated T cells FoxP3+CD25+CD4+” value [2] of the same molecule?
A: will not inhibit; also recorded: significantly increase

Q: And the “content of immunoglobulin G (IgG)” value ([3]; ASLN mouse kidney)?
A: can obviously inhibit

Q: What about the “content of serum complement C3” value ([3]; ASLN mouse kidney) of the same molecule?
A: can obviously inhibit

Q: And the “content of F4/80+ macrophages” value ([3]; ASLN mouse kidney, IHC)?
A: can obviously inhibit

Q: What about the glomerular cell proliferation ([3]; ASLN mouse renal tissue, PAM stain, FIG. 4E) of the same molecule?
A: obviously inhibits

Q: And the “glomerular crescent structure proliferation” value ([3]; ASLN mouse renal tissue, PAM stain, FIG. 4F)?
A: obviously inhibits

Q: What about the neutrophilic infiltration ([3]; ASLN mouse renal tissue, PAM stain, FIG. 4G) of the same molecule?
A: obviously inhibits

Q: And the fibrinoid necrosis ([3]; ASLN mouse renal tissue, PAM stain, FIG. 4H)?
A: obviously inhibits

Q: And the renal interstitial inflammation ([3]; ASLN mouse renal tissue, PAM stain, FIG. 4I)?
A: obviously inhibits

Q: And the glomerulonephritis ([3]; ASLN mouse renal tissue, PAM stain, FIG. 4J)?
A: obviously inhibits

Q: And the anti-dsDNA autoantibody ([3]; ASLN mouse, FIG. 4O)?
A: inhibits

Q: And the “generation of mitochondria ROS” value [4]?
A: can inhibit

Q: And the “proliferation of T cells” value [5]?
A: inhibit

Q: And the pERK expression level ([6]; FIG. 1A)?
A: can inhibit

Q: What about the pJNK expression level ([6]; FIG. 1B) of the same molecule?
A: can inhibit

Q: What about the pp38 expression level ([6]; FIG. 1C) of the same molecule?
A: can inhibit

Q: What about the NF-κB activation [7] of the same molecule?
A: will not affect; also recorded: fails to inhibit

Q: What about the BUN ([8]; favorable inhibitory effect in Week 3, FIG. 4A) of the same molecule?
A: inhibits

Q: What about the creatinine ([8]; favorable inhibitory effect in Week 3, FIG. 4B) of the same molecule?
A: inhibits

Q: And the “urine ACR” value ([8]; favorable inhibitory effect in Week 3, FIG. 4C)?
A: inhibits

Q: What about the “NLRP3 protein expression level” value ([9]; FIG. 1F) of the same molecule?
A: can inhibit

Q: What about the “pro-IL-1β protein expression level” value ([9]; FIG. 1G) of the same molecule?
A: can inhibit

Q: And the “expression level of IL-1β” value ([9]; FIGS. 2J-2K)?
A: can inhibit

Q: What about the “cytokines induced by LPS (IL-1β, caspase-1, pro-IL-1β) of cell supernatant” value ([9]; Western Blot, FIG. 2B) of the same molecule?
A: can inhibit

Q: What about the “activation of NLRP3 inflammasome (IL-1β induced by LPS)” value ([9]; after treatment with ATP, FIG. 2A) of the same molecule?
A: inhibit

Q: And the NLRP3 ([10]; FIG. 5B)?
A: inhibitory effect

Q: What about the IL-1β ([10]; FIG. 5C) of the same molecule?
A: inhibitory effect

Q: What about the Atg5 ([10]; FIG. 5G) of the same molecule?
A: inhibitory effect

Q: And the “LC3B I/II” value ([10]; FIG. 5H)?
A: inhibitory effect

Q: And the “content of p47NADPH” value ([10]; FIG. 5J)?
A: can inhibit

Q: And the “manifestation of NQO1” value ([10]; FIG. 5K)?
A: can promote

Q: What about the “activity of GPx” value ([10]; FIG. 5L) of the same molecule?
A: can enhance

Q: And the “expression level of superoxide anion, kidney” value ([11]; FIG. 6A)?
A: lower

Q: What about the “expression level of superoxide anion, serum” value ([11]; FIG. 6B) of the same molecule?
A: lower

Q: And the “expression level of superoxide anion, urine” value ([11]; FIG. 6C)?
A: lower

Q: And the LC3BI/II expression level ([12]; FIG. 2C, 2E)?
A: promotes

Q: And the p62 expression level ([12]; FIG. 2C, 2F)?
A: promotes

Q: And the Atg5 expression level ([12]; FIG. 2C-2D)?
A: promotes
